According to US20030086986A1, “Ophthalmic, pharmaceutical and other healthcare preparations with naturally occurring plant compounds, extracts and derivatives” (priority 1998, published 2003):
Read-outs that look alike come from different tables or passages of the source.

Assays:
Type in all cases: cell-based
Aspergillus niger = assay: Log kill test of preservative/disinfectant formulae (challenge inoculum, plating over time)
Description: (§1) Disinfectant and preservative tests are most often performed by challenging the preparation with a concentrated inoculum (e.g., 10^5-10^6 colony forming units (cfu)/ml) of each test organism. Over time samples are taken and plated on a growth medium to estimate the number of live organisms remaining at each time point.
(§2) The method for evaluating the effectiveness of a disinfectant for contact lenses generally requires measuring the ability of the agent to reduce the numbers of viable infective organisms during a period of time consistent with the normal period of storage of contact lenses between wearing times. This reduction of numbers of organisms is typically reported in terms of the change in the common logarithm (base 10 logarithm) of the microbial population as a result of exposure to the antimicrobial or disinfecting agent. For example, if the agent has effected a reduction in the concentration of a particular organisms in a challenge solution from 10^6 colony forming units (cfu) per milliliter (ml) to 10^2 cfu/ml within six hours of exposure then the change, or “log reduction”, of the organism as a result of exposure to the agent would be 4.0 (logs). In other words, the number of viable organisms have been reduced to one ten-thousandth of the original level.
(§3) In procedures for verifying the effectiveness of ophthalmic antimicrobial agents generally recognized guidelines call for the use of Candida albicans (a yeast), Fusarium solani or Aspergillus niger (both molds), Pseudomonas aeruginosa (a Gram-negative bacterium), Staphylococcus aureus (a Gram-positive bacterium), Serratia marcescens (a Gram-negative bacterium) and Escherichia coli (a bacterium common in the human gastrointestinal tract).
(§4) Various compounds/extracts were tested in the presence of either a phosphate or a borate-buffered solution. The test organisms included (S. aureus.=Staphylococcus aureus; Ps. aeruginosa=Pseudomonas aeruginosa; E. coli=Escherichia coli; C. albicans.=Candida albicans; and A. niger=Aspergillus niger) and inspected at various time intervals to determine the “log kill” of the various formulations.

Candida albicans = assay: as above
Description: as §1, §2, §3, §4

Serratia marcescens = assay: Log kill test of disinfectant formulae (6 hours)
Description: as §1
The method for evaluating the effectiveness of a disinfectant for contact lenses generally requires measuring the ability of the agent to reduce the numbers of viable infective organisms during a period of time consistent with the normal period of storage of contact lenses between wearing times. This reduction of numbers of organisms is typically reported in terms of the change in the common logarithm (base 10 logarithm) of the microbial population as a result of exposure to the antimicrobial or disinfecting agent. For example, if the agent has effected a reduction in the concentration of a particular organisms in a challenge solution from 10^6 colony forming units (cfu) per milliliter (ml) to 10^2 cfu/ml within six hours of exposure then the change, or “log reduction”, of the organism as a result of exposure to the agent would be 4.0 (logs). In other words, the number of viable organisms have been reduced to one ten-thousandth of the original level. […]

L929 cell = assay: Cytotoxicity assay: high water-content soft contact lenses cycled five days in test solution, then L929 cell cytotoxicity model
Method: The present inventors reported earlier on the anti-cytotoxic properties of certain natural products. Experiments were under taken to confirm the anti-cytotoxic effects of Allantoin in particular. […] Besides the usual microbial tests, the material was also used in a cytotoxicity assay, which consisted of cycling high water-content soft contact lenses for five days in each test solution. Then the solution saturated lenses were tested in a L929 cell cytotoxicity model. Cytotoxicity was rated from 0 to 5 with 2 or greater indicating cytotoxicity.

Staphylococcus aureus = assay: Log kill test of preservative/disinfectant formulae (challenge inoculum, plating over time)
Description: as §1, §2, §3, §4

[1] = test system: S. aureus, Ps. aeruginosa, E. coli, C. albicans, A. niger; assay: Preservative/disinfectant effectiveness against the panel of test organisms (USP Category 1A Preservative Effectiveness Test); details: for Effective Concentration (ppm) meeting the USP Category 1A Preservative Effectiveness Test requirements: summary of formulae that meet the requirements
Description: as §1, §3, §4
A recognized standard for evaluating the effectiveness of a preservation agent in contain in the USP. For the reader's convenience the formulae, which meet the USP Category 1A Preservative Effectiveness Test requirements, are summarized in Table 10.

[2] = Cytotoxicity test, USP 24 <87> Biological Reactivity Tests, In Vitro, USP Elution
Method: Cytotoxicity studies were also performed to determine the potential of these natural compounds, extracts and derivatives for irritation and discomfort when used as disinfecting or preservative agents. The cytotoxicity test analysis was performed in accordance with USP 24 <87> Biological Reactivity Tests, In Vitro, and USP Elution. Two ml of each sample were diluted with 10 ml of 1× MEM. The biological reactivity were described and rated as 0 (no reactivity), 1 (slight reactivity), 2 (mild reactivity), 3 (moderate reactivity), 4 (severe reactivity).

Compound: NC(=O)NC1NC(=O)NC1=O (centres unmarked) [Allantoin]
- Effectiveness against Aspergillus niger, in words (Aspergillus niger): quite effective
- Effectiveness against Candida albicans, in words (Candida albicans): quite effective
- Effectiveness against Serratia marcescens, in words (Serratia marcescens): effective to augment the killing
- Cytotoxicity in L929 cell model, in words (L929 cell; lenses cycled five days in test solution): mitigate the cytotoxic characteristics of PHMB

Compound: COc1ccc2cc3[n+](cc2c1OC)CCc1cc2c(cc1-3)OCO2 [Berberine]
- Effectiveness against Aspergillus niger, in words (Aspergillus niger): remarkably effective
- Effectiveness against Staphylococcus aureus, in words (Staphylococcus aureus): remarkably effective
- Effectiveness against Candida albicans, in words (Candida albicans): remarkably effective

Compound: O=C(/C=C/c1ccc(O)c(O)c1)O[C@@H]1C[C@](O)(C(=O)O)C[C@@H](O)[C@H]1O [Chlorogenic Acid]
- Overall disinfectant/preservative effectiveness against the test organisms, in words [1]: quite effective
- Effective Concentration (ppm) meeting the USP Category 1A Preservative Effectiveness Test requirements [1]: 1000 ppm

Compound: COc1cc(/C=C/C(=O)O)ccc1O [Ferulic Acid]
- Effectiveness against Candida albicans, in words (Candida albicans): better activity
- Overall disinfectant/preservative effectiveness against the test organisms, in words [1]: quite effective
- Effective Concentration (ppm) meeting the USP Category 1A Preservative Effectiveness Test requirements [1]: 1000 ppm

Compound: OCCc1ccc(O)c(O)c1 [Hydroxytyrosol, 3,4-dihydroxy-phenylethanol]
- Grade (biological reactivity) ([2]; 33.3 ppm): 0
- Effective Concentration (ppm) meeting the USP Category 1A Preservative Effectiveness Test requirements [1]: 200 ppm

Compound: C/C=C1/[C@H](O[C@@H]2O[C@H](CO)[C@@H](O)[C@H](O)[C@H]2O)OC=C(C(=O)OC)[C@H]1CC(=O)OCCc1ccc(O)c(O)c1 [Oleuropein]
- Grade (biological reactivity) ([2]; 8.3 ppm): 0
- Grade (biological reactivity) ([2]; 33.3 ppm): 0
- Grade (biological reactivity) ([2]; 166.7 ppm): 0

Compound: O.O.O=c1c(O)c(-c2ccc(O)c(O)c2)oc2cc(O)cc(O)c12 [Quercetin Dihydrate]
- Overall disinfectant/preservative effectiveness against the test organisms, in words ([1]; statement of the text, listed as Quercetin dihydrate, Dihydrate): extremely broad effectiveness
- Overall disinfectant/preservative effectiveness against the test organisms, in words ([1]; statement of the text, listed as Quercetin, Dihydrate): very good to excellent control

Compound: Oc1ccc(C=Cc2cc(O)cc(O)c2)cc1 [Resveratrol]
- Overall disinfectant/preservative effectiveness against the test organisms, in words [1]: wide range of effectiveness

Compound: polyhexamethyl biguanide [PHMB, reference compound]
- Effectiveness against Candida albicans, in words (Candida albicans): only moderately effective
- Overall disinfectant/preservative effectiveness against the test organisms, in words [1]: extremely effective against the tested bacteria
- Cytotoxicity in L929 cell model, in words (L929 cell): significant level of cytotoxicity
